The target in series [1] is proteinase K (Parengyodontium album, UniProt P06873). Kind of series: Proteolytic stability against proteinase K, followed by LC/MS. The method, then:
At designated time points, we quenched the reactions and analyzed them by LC/MS (Figures S34, S52–S53, and Table S1).
Proteinase K Treatment: To 200 µL solutions containing peptides 1, 2, 3, 4, and their mixtures (1/2, 1/4, 3/2, 3/4) in double-distilled water, 2 µL of a 100 mg/mL proteinase K stock solution was added to achieve a final concentration of 1 mg/mL. The reactions were incubated at 37 °C. For controls, 40 µL aliquots were withdrawn from each solution prior […]
were rapidly frozen in liquid nitrogen to stop the reaction. Samp les were then lyophilized at −80 °C, reconstituted in 0.1% TFA in H2O/acetonitrile (1:1 v/v), filtered, and analyzed […]
LC/MS analysis was performed with solvent A (water + 0.1% formic acid) and solvent B (acetonitrile + 0.1% formic acid) with a gradient program using the following separation […]
13.1 min 95%A, 5%B; 14 min 95%A, 5%B. The mass spectrometer was operated in positive ion mode, scanning a range of 50 –3000 m/z.

The test system of series [2] is alkaline phosphatase (ALP). Particulars: 1 U/mL ALP, 37 °C, neutral pH, monomeric peptide, LC/MS.
Text: (§1) (D) Kinetics of ALP-mediated dephosphorylation under similar conditions using 1 U/mL ALP.
(§2) To further validate the structural hypothesis, we performed enzymatic assays using ALP, which removes phosphate groups from both D- and L-tyrosines and has been widely used to explore enzyme-instructed self-assembly (EISA). , This setup isolates Pyn-EEEEEpY as the reactive component, allowing us to assess the impact of coassembly with Pyn-KKKKKK on dephosphorylation kinetics. Using the same protocol as the protease experiments, we measured the rate of dephosphorylation for Pyn-EEEEEpY monomers and their homo- and heterochiral mixtures with two equivalents of Pyn-KKKKKK (Figure S54 and Table S2).
The test system of series [3] is alkaline phosphatase (ALP). Kind of series: in vitro. Particulars: alkaline phosphatase (ALP, 1 U/mL).
Text: as §1, §2

The results in this text go back to paper PMC12593409, “Heterochiral and Heterotypic Self-Assembly of Intrinsically Disordered Peptides Confers Peptide Supercoils with Exceptional Proteolytic Stability” (Journal of the American Chemical Society, 2025).

As a reminder, the half-life is the time needed for the level to fall by half in the phase considered. Low readings indicate rapid decline, high ones slow decline.

Read-outs that look alike come from different tables or passages of the source. Non-standard residues stand in square brackets, D forms with d. Residues, ends and D or L forms follow the SMILES beside them. *: point of attachment. Acetyl(1-pyrenyl) = O=C(Cc1ccc2ccc3cccc4ccc1c2c34)*; d(pY) = N[C@H](Cc1ccc(OP(=O)(O)O)cc1)C(=O)O; pY = N[C@@H](Cc1ccc(OP(=O)(O)O)cc1)C(=O)O

proteinase K, sequence (P06873 106-384): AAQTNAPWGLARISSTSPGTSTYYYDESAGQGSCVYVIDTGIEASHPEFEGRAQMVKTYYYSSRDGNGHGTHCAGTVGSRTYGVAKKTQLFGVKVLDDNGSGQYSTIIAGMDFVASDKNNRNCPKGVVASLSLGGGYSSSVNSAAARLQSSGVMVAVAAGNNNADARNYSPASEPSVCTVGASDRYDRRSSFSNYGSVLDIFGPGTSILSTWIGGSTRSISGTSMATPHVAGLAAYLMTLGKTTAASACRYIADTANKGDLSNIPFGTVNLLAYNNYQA

In the case of Pyn-(L)-EEEEEpY/Pyn-(L)-KKKKKK [1/4], in series [1], the “increase in half-life compared to the L-peptide (1) alone” value is 287 fold and the “thalf of Pyn-(L)-EEEEEpY (1) in proteinase K digestion” value (from here on “thalf of Pyn-(L)-EEEEEpY”) is on record as 2872 min.
As to `O=C(O)CC[C@H](NC(=O)Cc1ccc2ccc3cccc4ccc1c2c34)C(=O)N[C@@H](CCC(=O)O)C(=O)N[C@@H](CCC(=O)O)C(=O)N[C@@H](CCC(=O)O)C(=O)N[C@@H](CCC(=O)O)C(=O)N[C@@H](Cc1ccc(OP(=O)(O)O)cc1)C(=O)O` [compound 1, Pyn-(L)-EEEEEpY] ({Acetyl(1-pyrenyl)}-EEEEE[pY]-OH), the “time to almost complete proteolysis” value in series [1] (1 mg/mL proteinase K, 37 °C, neutral pH, 1 mM monomeric peptide, LC/MS) is recorded as ≤ 30 min. In addition, the “thalf of Pyn-(L)-EEEEEpY” value in series [1] (1 mg/mL proteinase K, 37 °C, neutral pH, double-distilled water, 1 mM 1 alone or 500 μM 1 with 2 equiv of 2 or 4, sampled 5 min, 30 min, 2 h, 24 h, kinetic analysis of HPLC peak areas (LC/MS)) was “approximately 10 min”. In addition, the half-life at 1 mM in series [1] (isolated enzyme proteinase k) is 10 min. Moreover, the “time to complete dephosphorylation” value in series [2] is ≤ 30 min. This molecule also showed a half-life in series [3] of 4.7 min.
On to Pyn-(L)-EEEEEpY/Pyn-(D)-kkkkkk [1/2], for which, in series [1], the “cleavage slower than for Pyn-(L)-EEEEEpY (1) alone” value is given as “over 360 times”, the “state of Pyn-(L)-EEEEEpY (1) under proteinase K for up to 24 h” value is listed as “remained largely intact” and the “thalf of Pyn-(L)-EEEEEpY” value was > 3600 min.
For `O=C(O)CC[C@@H](NC(=O)Cc1ccc2ccc3cccc4ccc1c2c34)C(=O)N[C@H](CCC(=O)O)C(=O)N[C@H](CCC(=O)O)C(=O)N[C@H](CCC(=O)O)C(=O)N[C@H](CCC(=O)O)C(=O)N[C@H](Cc1ccc(OP(=O)(O)O)cc1)C(=O)O` [compound 3, Pyn-(D)-eeeeepy] ({Acetyl(1-pyrenyl)}-[dE][dE][dE][dE][dE][d(pY)]-OH), in series [2], the “time to complete dephosphorylation” value is recorded as ≤ 30 min. This molecule also came in with a half-life in series [3] of 9.6 min.
Take `NCCCC[C@H](NC(=O)[C@H](CCCCN)NC(=O)[C@H](CCCCN)NC(=O)[C@H](CCCCN)NC(=O)[C@H](CCCCN)NC(=O)[C@H](CCCCN)NC(=O)Cc1ccc2ccc3cccc4ccc1c2c34)C(=O)O` [compound 4, Pyn-(L)-KKKKKK]: the “proteolysis of Pyn-(L)-KKKKKK (4) alone” value in series [1] (1 mg/mL proteinase K, 37 °C, peptide alone, LC/MS (Figure S35B)) is given as “largely resistant to proteolysis”.
